# Source: patent US7629318B2, “Immunosuppressant compounds, methods and uses related thereto” (priority 2002, dated 2009)
# Square brackets hold non-standard residues; d marks the D form. Peptide text beside a SMILES is read from it. * marks the point of attachment. Gly(1-amidinopiperidin-4-yl) = N=C(N)N1CCC([C@H](N)C(=O)O)CC1; Pro(3R-Ph) = O=C(O)[C@H]1NCC[C@@H]1c1ccccc1; Tic = O=C(O)[C@@H]1Cc2ccccc2CN1; Cha = N[C@@H](CC1CCCCC1)C(=O)O; Nle = CCCC[C@H](N)C(=O)O; X3 = OCCOCCN*
# What was measured:
# [1] = target: Cathepsin B1 (EC 3.4.22.1 from bovine spleen) (Bos taurus, UniProt P07688); conditions: Cathepsin B, 4 h
# [2] = target: DR1 (DRA1*0101 DRB1*0101) (Homo sapiens, UniProt P01903+P01911, A100R/D57E/F55L/F60I/F76Y/I96L/L162R/M171V/P40L/Q125E/R42F/V115G/Y59C); experiment: Competitive binding to MHC-II protein DR1; conditions: Protein binding IC50 (nM) 0101, 0101
# Method in brief: (§1)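 Each MHC-II allele incubated with compound 16 hours at room temperature in duplicate; controls lacked compound, or both compound and MHC-II. Complexes captured 2 h at 4 °C, bound biotinylated peptide detected via europium-streptavidin and DELFIA enhancement, time-resolved fluorescence read at ex 340/em 613 (615) nm.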
# [3] = test system: T-cell proliferation, lymph node cells of chimeric 0401-IE transgenic mice; conditions: DR4-LN; for Immunsupressive assays DR4-LN (Max) % Inhibition: maximal inhibition; for IC50: read-out: Immunsupressive assays DR4-LN (IC50)
# Method in brief: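 Antigen-primed lymph node cells (1.5×10^5/well) from mice lacking murine class II and carrying a chimeric human RA-associated class II transgene, cultured 3 days with ovalbumin at half-maximal dose plus compound (~0.1–200 uM) in serum-free HL-1. Proliferation read by 3H-thymidine incorporation over the final 16 h.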
# [4] = Stability of compounds in mouse blood plasma; type: in vitro ADME
# Method in brief: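 Compounds at 5 μM final in rat, mouse or human plasma, incubated at 37 °C and sampled at 0, 6 and 24 h. Proteins precipitated with acetonitrile and the supernatant dried and reconstituted in 50% acetonitrile/0.1% TFA. PBS controls run for unstable compounds.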
# [5] = target: T1, LG2 (DR1: DRA1*0101 DRB1*0101) cells (Homo sapiens, UniProt P01903+P01911, A100R/D57E/F55L/F60I/F76Y/I96L/L162R/M171V/P40L/Q125E/R42F/V115G/Y59C); experiment: Competitive binding to MHC II proteins expressed on LG2 cells; type: cell-based; conditions: Cell binding IC50 (uM) LG2 (0101), LG2 (0101)
# T1 construct: MHC II Proteins Expressed on PRIESS and LG2 Cells; endogenous in cells; host or cells: LG2 cells
# Method in brief: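 LG2 or Priess cells incubated 4 h at 37° C, 6% CO2 in 1% FCS with 10-fold compound dilutions (series 16 nM-1615 μM) and biotinylated-detectable indicator peptide (16 μM solution added). Lysates captured 2 h at 4° C; bound peptide detected via europium-streptavidin time-resolved fluorescence (ex 340, em 613 nm).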
# [6] = target: DR4Dw14 (DRA1*0101 DRB1*0404) (Homo sapiens, UniProt P01903+P01911, A100R/A169T/F76Y/I96L/K127E/L162R/M171V/N62H/P40V/Q125Y/R42H/S133A/S149N/S66Y/V209L/W38E); experiment: Competitive binding to MHC-II protein DR4Dw14; conditions: 0404; read-out: Protein binding IC50 (nM) 0404
# Method in brief: as §1
Structure (SMILES),Stability (Arbitrary units) Cath B 4 h [1],IC50 [2],Immunsupressive assays DR4-LN (Max) % Inhibition [3],IC50 [3],Stability (Arbitrary units) Mouse 6 h [4],Stability (Arbitrary units) Mouse 24 h [4],IC50 [5],IC50 [6]
"CCCC[C@H](NC(=O)[C@@H]1Cc2ccccc2CN1C(=O)[C@@H](NC(=O)[C@H](CC1CCCCC1)NC(C)=O)C1CCN(C(=N)N)CC1)C(=O)NCCOCCO [Compound P70, Ac-Cha-Gpg-Tic-Nle-N(H)CH2CH2OCH2CH2OH] (Ac-[Cha][Gly(1-amidinopiperidin-4-yl)][Tic][Nle]-X3)",110 Arbitrary units,90 nM,54%,42 µM,105 Arbitrary units,82 Arbitrary units,5.7 µM,290 nM
"CSCC[C@H](NC(=O)[C@@H]1Cc2ccccc2CN1C(=O)[C@H](CCCNC(=N)N)NC(=O)[C@H](CC1CCCCC1)NC(C)=O)C(=O)N1CC[C@H](c2ccccc2)[C@H]1C(N)=O [Compound P31, Ac-Cha-Arg-Tic-Met-βPhPro-NH2] (Ac-[Cha]R[Tic]M[Pro(3R-Ph)]-NH2)",102 Arbitrary units,290 nM,64%,18 µM,86 Arbitrary units,56 Arbitrary units,8.5 µM,850 nM
"CCCC[C@H](NC(=O)C1c2ccccc2CN1C(=O)[C@@H](NC(=O)[C@H](CC1CCCCC1)NC(C)=O)C1CCN(C(=N)N)CC1)C(=O)N(C)Cc1ccccc1 (single isomer, unassigned) [Compound P78-1]",100 Arbitrary units,550 nM,,34 µM,93 Arbitrary units,18 Arbitrary units,4.6 µM,1400 nM
